Reference: patent publication US20260015574A1, “METHODS FOR SHORTENING LAG PHASE DURATION IN MICROORGANISMS” (YEDA RESEARCH AND DEVELOPMENT CO. LTD., priority 2022, published 2026)

Assays:
[1] = system: methionine synthesis activity in P. inhibens protein crude extracts; assay: Methionine synthesis activity assay with P. inhibens protein crude extracts; type: biochemical, Phaeobacter inhibens; conditions: crude extracts of stationary bacterial cells treated with 1 μM DMSP for 2 hours; LC/MS
Protocol: The bacterium P. inhibens DSM 17395 was cultivated in 100 mL ASW with 5.5 mM glucose until reaching stationary phase, and then treated with 1 μM DMSP for 2 hours. Cell pellets of control and treated bacteria were harvested by 10 min centrifugation (15,000 rpm) at 4° C. The pellets were washed with buffer A (50 mM Hepes-KOH PH 7.5), resuspended in buffer B (50 mM Hepes-KOH PH 7.5, 10 mM β-mercaptoethanol, 1 mM EDTA) and disrupted by 5 min bead beating at 30 s^−1 with 300 mg silica beads (Mixer Mill MM-400, Retsch, Haan, Germany). The supernatant was collected by 5 min centrifugation (15,000 rpm). To measure the activity of enzymatic DMSP demethylation and methionine formation, 0.5 mL crude extract (1 mg/mL protein; determined with Bio-Rad protein assay, Hercules, California, U.S.) were incubated for 1 h with 1 mL Buffer C (60 mM PPB, 4.5 mM homocysteine, 4.5 mM DMSP, pH 7.5). The reaction mix was snap frozen in liquid nitrogen, and subsequently analyzed for product formation using LC/MS (FIG. 10).
To further elucidate the fate of methyl groups, the inventors analyzed the transcriptome of DMSP-treated P. inhibens bacteria during the lag phase, and compared it to untreated control cultures. […]

Various marine bacteria = assay: Lag phase shortening in various marine bacteria; type: cell-based; conditions: minute amounts of compound
Protocol: The bacterial strain Phaeobacter inhibens DSM 17395 was purchased from the German collection of microorganisms and cell cultures (DSMZ, Braunschweig, Germany) and stored at −80° C. with 20% glycerol. Routine cultivation of P. inhibens was conducted at 30° C. in artificial seawater medium (ASW) based on Goyet and Poisson (1989). The ASW medium contained mineral salts (NaCl, 409.41 mM; Na2SO4, 28.22 mM; KCl, 9.08 mM; KBr, 0.82 mM; NaF, 0.07 mM; Na2CO3, 0.20 mM; NaHCO3, 2 mM; MgCl2, 50.66 mM; SrCl2, 0.09 mM), L1 vitamins (thiamine HCl, 100 μg/L; biotin, 0.5 μg/L; vitamin B12, […]), L1 trace elements (Na2EDTA·2H2O, 4.36 mg/L; FeCl3·6H2O, 3.15 mg/L; MnCl2·4H2O, 178.1 μg/L; ZnSO4·7H2O, 23.0 μg/L; CoCl2·6H2O, 11.9 μg/L; CuSO4·5H2O, 2.5 μg/L; Na2MoO4·2H2O, 19.9 μg/L; H2SeO3, 1.29 μg/L; NiSO4·6H2O, 2.63 μg/L; Na3 VO4, 1.84 μg/L; K2CrO4, 1.94 μg/L), and L1 nutrients (NaNO3, 882 μM; NaH2PO4, 36.22 μM). ASW was adjusted to pH 8 using HCl. […] A 96-well Tecan Infinite M Plex plate reader was used for high-resolution monitoring of bacterial growth dynamics at 30° C. […] The growth of bacteria in co-culture with algae was monitored by counting colony forming units (CFU) on ½ YTSS agar plates. The growth of algae was monitored with a CellStream flow cytometer (Merck, Darmstadt, Germany). […]

[2] = system: bacteria that are plant-associated; assay: Lag phase shortening in plant-associated bacteria; type: cell-based
Text: To explore whether lag phase shortening is a general mechanism among bacteria, the inventors tested the effect of methylated compounds in bacteria with different lifestyles. […] Since methylated compounds are a hallmark of photosynthesizing organisms, the inventors next tested a variety of bacteria that are plant-associated. […] Finally, to establish the prevalence of lag phase shortening among bacteria, the inventors tested the model bacterium E. coli. This bacterium is not commonly found associated with photosynthesizing organisms, and thus, is unlikely to respond to algal metabolites. […] The synchrony between specific compounds and different groups of bacteria may reflect the natural context […].

`C[S+](C)CCC(=O)[O-]` [DMSP, dimethylsulfoniopropionate] was tested, and the methionine synthesis activity [1] was “elevated”, the lag phase shortening (Various marine bacteria) was “marked lag phase shortening” and the lag phase shortening [2] was “to slightly less extent”.
